Assay results as given in paper PMC9489722, “Identification and development of a subtype-selective allosteric AKT inhibitor suitable for clinical development” (Scientific Reports, 2022).
Read-outs that look alike come from different tables or passages of the source.

Tests used:
MCF-7 cells [1] = test: In vitro Incucyte live cell imaging proliferation assay; format: cell-based; conditions: MCF-7, 5 µM, 7d time course
Description: MCF-7 cells were obtained from American Type Culture Collection (ATCC). […] Cell confluency was measured over time using an Incucyte Zoom S3 using the basic analyser processing analysing tool. Percentage confluence values were calculated and IC50 values were derived as previously stated.

CYP 2D6 = CYP 2D6 (Homo sapiens, UniProt P10635); test: CYP2D6 inhibition; format: in vitro ADME
CYP 2D6, sequence (P10635 whole entry): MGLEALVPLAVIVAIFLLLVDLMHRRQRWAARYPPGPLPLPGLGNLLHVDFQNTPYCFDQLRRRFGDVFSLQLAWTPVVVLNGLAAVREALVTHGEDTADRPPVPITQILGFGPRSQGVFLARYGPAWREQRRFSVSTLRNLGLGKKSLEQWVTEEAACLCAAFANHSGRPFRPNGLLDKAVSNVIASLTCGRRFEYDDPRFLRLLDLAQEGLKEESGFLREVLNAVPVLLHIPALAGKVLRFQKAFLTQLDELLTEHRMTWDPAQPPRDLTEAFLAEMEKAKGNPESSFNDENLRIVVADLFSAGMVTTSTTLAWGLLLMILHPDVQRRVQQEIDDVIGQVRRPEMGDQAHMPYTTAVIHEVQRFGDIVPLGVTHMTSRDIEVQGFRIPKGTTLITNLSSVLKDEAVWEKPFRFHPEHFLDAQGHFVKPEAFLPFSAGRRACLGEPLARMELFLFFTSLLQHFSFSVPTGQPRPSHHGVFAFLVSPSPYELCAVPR

AKT1 = target: T1, AKT1 (Homo sapiens, UniProt P31749); test: AKT1 biochemical kinase assay (FP iMAP)
T1 construct: purchased Millipore
T1 sequence (P31749 whole entry): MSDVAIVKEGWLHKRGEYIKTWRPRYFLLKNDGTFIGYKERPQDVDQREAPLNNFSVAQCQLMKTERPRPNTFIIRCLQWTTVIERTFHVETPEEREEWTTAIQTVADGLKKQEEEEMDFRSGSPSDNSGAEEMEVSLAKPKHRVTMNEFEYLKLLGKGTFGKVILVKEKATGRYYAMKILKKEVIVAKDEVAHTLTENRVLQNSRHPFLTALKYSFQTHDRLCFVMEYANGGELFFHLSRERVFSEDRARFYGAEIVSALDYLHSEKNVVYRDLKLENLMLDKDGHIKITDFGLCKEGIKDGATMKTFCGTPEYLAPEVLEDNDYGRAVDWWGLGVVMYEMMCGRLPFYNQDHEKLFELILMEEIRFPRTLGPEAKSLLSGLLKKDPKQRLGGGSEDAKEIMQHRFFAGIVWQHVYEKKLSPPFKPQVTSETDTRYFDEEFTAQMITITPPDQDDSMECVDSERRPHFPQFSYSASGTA
Description: Biochemical analysis was performed using kinases obtained from Millipore (AKT1, ∆AKT1, ∆AKT2, ∆AKT3) and Signal Chem (AKT2 and AKT3). […] (Molecular Devices) against the three isoforms of AKT and their PH domain null mutants. Compounds were dissolved in DMSO prior to screening at 14 point titration series in the range (50 µM–50 pM). Fluorescence polarisation was measured using a Biotek Synergy 4 Hybrid microplate reader. Percentage inhibition of kinase activity was calculated and IC50 values derived using non-linear regression on GraphPad Prism. Competition of ALM301 with ATP was determined using AKT1 under increasing ATP concentrations up to 1000 µM.

MCF-7 cells [2] = test: Clonogenic cell survival assay; format: cell-based; conditions: Homo sapiens, MCF7; MCF-7, concentration range 0.001–10 µM

CCN1C(=O)COc2nc(-c3ccc([C@]4(N)C[C@@H](O)C4)cc3)c(-c3ccccc3)cc21 [ALM301, 6-(4-((1S,3S)-1-amino-3-hydroxycyclobutyl)phenyl)-1-ethyl-7-phenyl-1H-pyrido[2,3-b][1,4]oxazin-2(3H)-one]
cell proliferation by live cell imaging (MCF-7 cells [1]): completely abrogated cell proliferation | IC50 (CYP 2D6): > 25000 nM | IC50 (AKT1; ATP concentration 150 µM, read-out: IC50 vs. AKT1): 121 nM | IC50 (AKT1; ATP concentration 500 µM, read-out: IC50 vs. AKT1): 157 nM | IC50 (AKT1; ATP concentration 1000 µM, read-out: IC50 vs. AKT1): 110 nM | IC50 (AKT1; full length AKT1, read-out: IC50 full length AKT1): 125 nM | IC50 (AKT1; read-out: AKT IC50, AKT1): 130 nM | IC50 (MCF-7 cells [2]): 100 nM
